Data as given in patent US6685968B1, “Boric acid sapstain control method” (priority 2003, dated 2004).

Tested on: sapstain
Details: fresh cut hackberry lumber dipped in aqueous solutions (1,3,5,7 and 10% boric acid; DOT at the same level of boric oxide); stacked for air drying; examined after six months of seasoning and planing
Procedure: Aqueous solutions containing 1,3,5,7, and 10% boric acid according to my preferred embodiment were prepared and used to treat fresh cut hackberry lumber by dipping. Aqueous disodium octaborate tetrahydrate solutions containing the same level of boric oxide were prepared and used in the same manner. This treated lumber, and untreated controls, was stacked in accordance with standard sawmill air drying practice. After six months of seasoning the lumber was planed, and examined for sapstain control.

O.O.O.O.O=BOB1OB(OB=O)OB2OB([O-])OB([O-])OB(O1)O2.[Na+].[Na+] [DOT, disodium octaborate tetrahydrate]
sapstain control: superior to the untreated controls

OB(O)O [boric acid]
sapstain control: superior sapstain control compared to the DOT concentrations
